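A five-concentration, 48-hour dose response in 96-well plates underlies each endpoint, interpolated linearly between surrounding concentrations. Definition used: TGI = concentration required for complete inhibition of growth.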
What was measured:
Assay in all cases: NCI anticancer screen, dose series, 48 h
MALME-3M melanoma = test system: MALME-3M melanoma
M14 melanoma = test system: M14 melanoma
SR leukemia = test system: SR leukemia
U251 CNS = test system: U251 CNS
CCRF-CEM leukemia = test system: CCRF-CEM leukemia
TK-10 renal = test system: TK-10 renal
NCI-H226 lung = test system: NCI-H226 lung
HT29 colon = test system: HT29 colon
HL-60(TB) leukemia = test system: HL-60(TB) leukemia
SF-268 CNS = test system: SF-268 CNS
HCC-2998 colon = test system: HCC-2998 colon
SK-OV-3 ovarian = test system: SK-OV-3 ovarian
XF 498 CNS = test system: XF 498 CNS
RXF 393 renal = test system: RXF 393 renal
SK-MEL-2 melanoma = test system: SK-MEL-2 melanoma
MOLT-4 leukemia = test system: MOLT-4 leukemia
HOP-92 NSCLC = test system: HOP-92 NSCLC
ACHN renal = test system: ACHN renal
SF-539 CNS = test system: SF-539 CNS
HCT-15 colon = test system: HCT-15 colon
OVCAR-4 ovarian = test system: OVCAR-4 ovarian
NCI-H522 lung = test system: NCI-H522 lung
IGROV1 ovarian = test system: IGROV1 ovarian
UO-31 renal = test system: UO-31 renal
SK-MEL-5 melanoma = test system: SK-MEL-5 melanoma
M19-MEL melanoma = test system: M19-MEL melanoma
SNB-19 CNS = test system: SNB-19 CNS
HOP-62 NSCLC = test system: HOP-62 NSCLC
OVCAR-3 ovarian = test system: OVCAR-3 ovarian
SK-MEL-28 melanoma = test system: SK-MEL-28 melanoma
LOX IMVI melanoma = test system: LOX IMVI melanoma
SN12C renal = test system: SN12C renal
DLD-1 colon = test system: DLD-1 colon
SW-620 colon = test system: SW-620 colon
NCI-H23 lung = test system: NCI-H23 lung
HCT-116 colon = test system: HCT-116 colon
786-0 renal = test system: 786-0 renal
KM12 colon = test system: KM12 colon
LXFL 529 NSCLC = test system: LXFL 529 NSCLC
KM20L2 colon = test system: KM20L2 colon
K-562 leukemia = test system: K-562 leukemia
EKVX NSCLC = test system: EKVX NSCLC
A549 NSCLC = test system: A549 NSCLC
COLO 205 colon = test system: COLO 205 colon
SF-295 CNS = test system: SF-295 CNS
SNB-75 CNS = test system: SNB-75 CNS
UACC-62 melanoma = test system: UACC-62 melanoma
DMS 273 small cell lung = test system: DMS 273 small cell lung
UACC-257 melanoma = test system: UACC-257 melanoma
SNB-78 CNS = test system: SNB-78 CNS
OVCAR-8 ovarian = test system: OVCAR-8 ovarian
NCI-H460 lung = test system: NCI-H460 lung
DMS 114 small cell lung = test system: DMS 114 small cell lung
A498 renal = test system: A498 renal
RPMI-8226 leukemia = test system: RPMI-8226 leukemia

Measured: TGI

Cc1nc2c(n1CC(C)C)C(=O)c1ccccc1C2=O
29.6 µM: M19-MEL melanoma
34.7 µM: SK-MEL-5 melanoma
87.6 µM: SF-539 CNS
97.7 µM: A549 NSCLC
50.5 µM: UACC-62 melanoma
82.1 µM: OVCAR-3 ovarian
40.6 µM: MALME-3M melanoma
95.9 µM: XF 498 CNS
65.7 µM: HOP-92 NSCLC
54.2 µM: NCI-H460 lung
49.2 µM: NCI-H23 lung
45.4 µM: UACC-257 melanoma
74.7 µM: SK-MEL-2 melanoma
76.5 µM: NCI-H522 lung
67.4 µM: HCT-116 colon
not listed: DMS 114 small cell lung | A498 renal | RPMI-8226 leukemia
> 100 µM: all other assays above

CCCOP1(=O)C=C(O)C(Cl)=C(C)C1 (stereo not drawn)
not listed: DMS 114 small cell lung | A498 renal | RPMI-8226 leukemia
> 100 µM: all other assays above

CCOC(=O)C(C(CC(=O)OC)NC(=O)OCc1ccccc1)C1(C)OCCO1 (stereo not drawn)
not listed: SK-OV-3 ovarian | HOP-92 NSCLC | NCI-H522 lung | M19-MEL melanoma | KM12 colon | SNB-78 CNS
> 100 µM: all other assays above
